Test results reported in PMC6838683, “Discovery of Human Signaling Systems: Pairing Peptides to G Protein-Coupled Receptors” (Cell, 2019).
Like-named read-outs stand apart in the source and are kept apart here. No end group written: not given here.

Assays:
[1] = target: T1, GPR15 (human) (UniProt P49685)
T1 sequence: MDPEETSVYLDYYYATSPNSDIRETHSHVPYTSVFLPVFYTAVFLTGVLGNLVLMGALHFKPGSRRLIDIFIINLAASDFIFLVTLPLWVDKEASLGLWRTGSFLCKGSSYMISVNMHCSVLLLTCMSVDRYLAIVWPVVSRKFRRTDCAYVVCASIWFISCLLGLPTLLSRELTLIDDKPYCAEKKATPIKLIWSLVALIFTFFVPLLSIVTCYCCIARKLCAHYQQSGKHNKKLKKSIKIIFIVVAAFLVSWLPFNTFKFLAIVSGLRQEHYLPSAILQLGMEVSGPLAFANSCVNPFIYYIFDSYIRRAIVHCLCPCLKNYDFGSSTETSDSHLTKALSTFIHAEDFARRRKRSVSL

[2] = system: GPR32; assay: Repeat of proposed literature pairing (mass redistribution and/or internalization); type: cell-based, human
Excerpt: (§1) DMR assays provide a single integrated readout of ligand-dependent cellular response, utilizing an optical biosensor in specialized microplates to detect wavelength shifts of reflected light as it passes through the biosensor and the lower portion of the cell (∼150-200 nm). As a signal pathway agnostic approach, DMR assays are well-suited to the study of GPCRs ([Fang et al., 2008], [Schröder et al., 2011]). The mass redistribution response (Δ picometer (pm)) likely reflects a number of intracellular events, including cytoskeletal rearrangement, protein trafficking and receptor internalization. Orphan receptor-expressing cells were gently washed twice with assay buffer (HBSS with 1 mM CaCl2, 1 mM MgCl2, 20 mM HEPES, 0.01% pluronic F-68, pH 7.4) containing 0.1% DMSO and cells were equilibrated for 90 min at 22°C in the EPIC Benchtop (BT) System (Corning) to establish a stable DMR signal. After 3-5 min baseline recordings, peptides (10 μM) were added in duplicate wells using an electronic 384-channel Viaflo pipette (Integra Biosciences, Switzerland) and DMR responses were measured for 60 min at 22°C. 100 nM norepinephrine was included as an internal assay control to assess the cellular DMR response via endogenously-expressed adrenoceptors in the TREx 293 cells. Real-time data were processed using the BT to column converter MS-Excel macro (Corning) and analyzed in GraphPad Prism 7.0. DMR recordings in peptide screening experiments were buffer and solvent corrected and the area under the curve (AUC) was quantified. For subsequent validation experiments, peptides were diluted in assay buffer containing 0.1% DMSO and DMR assays were performed as above. […] Data represent mean ± standard error of the mean (SEM) from at least 3 biologically independent experiments.
(§2) A TR-FRET real-time internalization assay was used to examine peptide-dependent changes in orphan receptor localization as described previously ([Foster and Bräuner-Osborne, 2018]). Surface-expressed SNAP-tagged receptors were labeled with a cell-impermeable luminescent terbium cryptate (100 nM SNAP Lumi4-Tb; Cisbio, France) for 1 hr at 37°C. Cells were washed to remove excess terbium and incubated with fluorescein-O-acetic acid (100 μM; Sigma Aldrich) for 5 min at 37°C. Peptides were added as for DMR assays, and internalization responses were recorded for 60 min at 37°C using an EnVision 2104 Multimode plate reader (PerkinElmer). 100 nM GLP-1 was used as a positive control for SNAP-GLP1R internalization. Real-time internalization responses were calculated based on TR-FRET (excitation 340 nm; emission 520 nm and 615 nm), and were expressed as the ratio between donor (terbium) and acceptor (fluorescein) emission. For peptide screening analysis (both DMR and internalization assays), we calculated the area under the curve from the real-time traces. As the magnitude of the responses was variable between orphan receptor targets, particularly for the SNAP-tag based internalization assay where the signal is dependent on receptor surface expression, the AUC values were normalized to their respective plate averages and expressed as fold change. Validation experiments for receptor internalization were performed as above. Internalization data was processed in MS-Excel and area under the curve was used to generate concentration-response curves using GraphPad Prism 7.0. Data represent mean ± standard error of the mean (SEM) from at least 3 biologically independent experiments.

[3] = system: human GPCRs; set-up: method as in Guide to Pharmacology database; conditions: max reported value, ref Guide to Pharmacology database, cited from earlier work
Excerpt: Supplement mmc1.xlsx, sheet "HumanGPCRLigands" | column: pKi_value; pKd_value; pEC50_value; pIC50_value

[4] = target: T2, melanocortin MC4 receptor (Homo sapiens, UniProt P32245); assay: β-arrestin recruitment (Tango), known peptide receptors; type: cell-based; conditions: MC4R; mean, n = 3
T2 construct: host or cells: HTLA cells (HEK293-derived)
Description: (§3) The peptide library was additionally screened against 120 GPCR targets in parallel, including all available orphan receptors and 27 known class A peptide receptors using the Tango assay platform ([Kroeze et al., 2015]). Briefly, HTLA cells (a HEK293 cell line stably expressing a tTA-dependent luciferase reporter and a β-arrestin2-TEV fusion gene) were plated 10,000 cells/well in poly-L-lysine–coated clear-bottom white 384-well plates in DMEM supplemented with 10% FBS, 100 U/ml penicillin and 100 μg/ml streptomycin, 2 μg/ml puromycin and 100 μg/ml hygromycin B. 24 hr later, cells were transfected with Tango GPCR constructs using the calcium phosphate method ([Jordan et al., 1996]). The next day, culture medium was changed to DMEM + 1% dFBS and 10 μM peptides were added for overnight stimulation. Bright-Glo solution (Promega) was incubated for 15–20 min at room temperature, and luminescence was counted using a Trilux luminescence counter (Wallac).
(§4) For subsequent peptide validation experiments using Tango assays, HTLA cells were transiently transfected in 10 cm dishes with the receptor of interest using polyethylenimine (PEI) ([Longo et al., 2013]). After 24 hr, 25,000 cells/well were plated in clear bottom, white-walled 384-well plates. Assays were performed as described above, with luminescence measured using an EnSpire 2300 Multimode plate reader (PerkinElmer). Luminescence counts were exported into Excel and were analyzed using GraphPad Prism 7.

[5] = system: NPFF2; assay: as above; type: cell-based, human; conditions: endogenous ligand(s) included in peptide library
Excerpt: Supplement mmc6.xlsx, sheet "Peptide GPCR controls" | column: Confirmed?

[6] = system: GPR83; assay: Repeat of proposed literature pairing (mass redistribution and/or internalization); type: cell-based, human
Excerpt: as §1, §2

[7] = target: T3, GPR176 (Homo sapiens, UniProt Q14439); assay: β-arrestin recruitment (Tango), indicative pairing; type: cell-based; conditions: mean, n = 3
T3 construct: host or cells: HTLA cells (HEK293-derived)
T3 sequence (Q14439 1-515): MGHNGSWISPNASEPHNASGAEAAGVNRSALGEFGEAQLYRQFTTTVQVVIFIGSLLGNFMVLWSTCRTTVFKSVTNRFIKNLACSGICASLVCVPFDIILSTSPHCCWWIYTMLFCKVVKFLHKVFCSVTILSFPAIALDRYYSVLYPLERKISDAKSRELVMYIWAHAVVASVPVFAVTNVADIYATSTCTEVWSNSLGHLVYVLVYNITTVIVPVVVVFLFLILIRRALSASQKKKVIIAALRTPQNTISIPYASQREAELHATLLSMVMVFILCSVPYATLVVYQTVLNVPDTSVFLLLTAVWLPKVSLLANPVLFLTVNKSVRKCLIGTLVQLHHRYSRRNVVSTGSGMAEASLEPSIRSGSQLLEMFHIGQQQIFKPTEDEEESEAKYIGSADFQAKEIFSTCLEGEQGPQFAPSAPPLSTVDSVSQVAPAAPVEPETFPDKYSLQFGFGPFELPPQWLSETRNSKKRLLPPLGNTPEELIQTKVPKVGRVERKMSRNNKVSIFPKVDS
Description: as §3, §4

[8] = system: GPR19; assay: Repeat of proposed literature pairing (mass redistribution and/or internalization); type: cell-based, human
[9] = system: GPR151; assay: as above; type: cell-based, human
Excerpt: as §1, §2

[10] = system: P2RY10; assay: as above; type: cell-based, human; conditions: for receptor-dependent activation by proposed ligand, P2RY10: repeat of literature pairing across multiple assays, Figure S7A, Tables S5 and S7
Excerpt: as §1, §2

[11] = system: GPR37L1; assay: as above; type: cell-based, human
Excerpt: as §1, §2

[12] = system: GPR37; assay: as above; type: cell-based, human
Excerpt: as §1, §2

[13] = repeat of literature pairing, Figure S7A, Tables S5 and S7
[14] = receptor galr1_human (GALR1, P47211)
[15] = receptor galr2_human (GALR2, O43603)
[16] = receptor galr3_human (GALR3, O60755)

T2 sequence (P32245 whole entry): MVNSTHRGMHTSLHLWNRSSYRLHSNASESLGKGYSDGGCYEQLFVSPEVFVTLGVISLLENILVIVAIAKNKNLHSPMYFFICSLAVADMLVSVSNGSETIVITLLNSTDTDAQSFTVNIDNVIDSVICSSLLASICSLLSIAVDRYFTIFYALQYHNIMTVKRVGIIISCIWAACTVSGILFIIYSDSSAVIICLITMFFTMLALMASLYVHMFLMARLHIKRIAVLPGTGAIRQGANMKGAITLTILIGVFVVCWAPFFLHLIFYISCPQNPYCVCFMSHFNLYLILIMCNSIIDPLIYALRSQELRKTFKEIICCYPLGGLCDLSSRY

Molecule: 45-amino acid cleavage variant of GPR15L (peptide)
- fold improved potency at GPR15 against the 11-amino acid peptide 64 (assay not given) [1]: 10 fold

Molecule: CC/C=C\C[C@H](O)/C=C/C=C\C=C\C=C\[C@@H](O)[C@@H](O)C/C=C\CCC(=O)O [RvD1]
- Lipid pairing for orphan receptor GPR32 (confirmed/unconfirmed) ([2]; repeat of literature pairing): Unconfirmed lipid pairings for orphans

Molecule: CC/C=C\C[C@H](O)/C=C/C=C\C=C\C=C\[C@@H](O)[C@@H](O)C/C=C\CCC(=O)O [resolvin D1]
- receptor-dependent activation by proposed ligand, GPR32 [2, 13]: no activity
- Comment (response in DMR / internalization assays) ([2]; target GPR32): No response in any assay
- Active in DMR/internalization ([2]; target GPR32, reported ligand tested on receptor-expressing cell line): No
- pEC50_value ([3]; receptor fpr2_human (FPR2, P25090)): 11.9
- pEC50_value ([3]; receptor gpr32_human (GPR32), Class A orphans): 11.1

Molecule: ELEGEQPDGLEHVLEPDTEKADGPYRVEHFRWGNPPKD [Peptide 205]
- Emax, Tango (fold over basal) [4]: 4.9 fold over basal
- pEC50, Tango (fold over basal) [4]: 6.21

Molecule: HSQGTFTSDYSKYLDS [Peptide 110]
- Emax, Tango (fold over basal) [4]: 4.2 fold over basal
- pEC50, Tango (fold over basal) [4]: 5.93

Molecule: Neuropeptide NPVF; RFRP-3
- Confirmed? (confirmation of b-arrestin recruitment) [5]: No

Molecule: PEN: neuroendocrine peptide PEN, proposed GPR83 ligand (AADHDVGSELPPEGVLGALLRV)
- Peptide pairing for orphan receptor GPR83 (confirmed/unconfirmed) ([6]; repeat of literature pairing): Confirmed peptide pairings for orphans
- receptor-dependent activation by proposed ligand, GPR83 ([6]; repeat of literature pairing across multiple assays, Figure S7A, Tables S5 and S7): selective receptor-dependent activation
- Comment (response in DMR / internalization / Tango assays) ([6]; target GPR83): PEN is included in library (peptide 146) and was purchased separately. Active in DMR, inactive in internalization, but also active in Tango
- Active in DMR/internalization ([6]; target GPR83, reported ligand tested on receptor-expressing cell line): Yes (DMR)

Molecule: RSVNPYLQ [Peptide 32]
- Emax, Tango (fold over basal) [7]: 2.3 fold over basal
- pEC50, Tango (fold over basal) [7]: 5.82

Molecule: adropin (CHSRSADVDSLSESSPNSSPGPCPEKAPPPQKPSHEGSYLLQP; not fully specified; cysteine pairing not given here; UniProt Q6UWT2 34-76, looked up) [proposed GPR19 ligand]
- Peptide pairing for orphan receptor GPR19 (confirmed/unconfirmed) ([8]; repeat of literature pairing): Unconfirmed peptide pairings for orphans
- receptor-dependent activation by proposed ligand, GPR19 [8, 13]: no activity
- Comment (response in DMR / internalization assays) ([8]; target GPR19): No response in any assay
- Active in DMR/internalization ([8]; target GPR19, reported ligand tested on receptor-expressing cell line): No

Molecule: galanin [reference compound]
- Peptide pairing for orphan receptor GPR151 (confirmed/unconfirmed) ([9]; repeat of literature pairing): Unconfirmed peptide pairings for orphans
- receptor-dependent activation by proposed ligand, GPR151 [9, 13]: no activity
- Comment (response in DMR / internalization assays) ([9]; target GPR151): Galanin is included in library (peptide 177) and was purchased separately. No response in any assay.
- Active in DMR/internalization ([9]; target GPR151, reported ligand tested on receptor-expressing cell line): No
- pIC50_value [3, 14]: 9.9
- pKi_value [3, 14]: 10.5
- pEC50_value [3, 15]: 9.1
- pIC50_value [3, 15]: 9.3
- pKi_value [3, 15]: 9.1
- pIC50_value [3, 16]: 7.1
- pKi_value [3, 16]: 7.2

Molecule: lysophosphatidic acid
- receptor-dependent activation by proposed ligand, P2RY10 [10]: no activity

Molecule: lysophosphatidylserine [LPS]
- Lipid pairing for orphan receptor P2RY10 (confirmed/unconfirmed) ([10]; repeat of literature pairing): Confirmed lipid pairings for orphans
- receptor-dependent activation by proposed ligand, P2RY10 [10]: selective receptor-dependent activation
- receptor-dependent activation by proposed ligand, P2RY10 ([10]; listed as lysophosphatidylserine): marginal
- pEC50_value ([3]; receptor gp174_human (GPR174), Class A orphans): 7.1
- pEC50_value ([3]; receptor gpr34_human (GPR34), Class A orphans): 6.9

Molecule: peptide 64 (GPR15L_(47-57))
- pEC50 of reduced cyclic AMP (cAMP) production (Gi/o) [1]: 6.72 pEC50

Molecule: prosaptide
- Peptide pairing for orphan receptor GPR37L1 (confirmed/unconfirmed) ([11]; repeat of literature pairing): Unconfirmed peptide pairings for orphans
- receptor-dependent activation by proposed ligand, GPR37L1 [11, 13]: no activity
- Comment (response in DMR / internalization assays) ([11]; target GPR37L1): No response in any assay
- Active in DMR/internalization ([11]; target GPR37L1, reported ligand tested on receptor-expressing cell line): No
- Peptide pairing for orphan receptor GPR37 (confirmed/unconfirmed) ([12]; repeat of literature pairing): Unconfirmed peptide pairings for orphans
- receptor-dependent activation by proposed ligand, GPR37 [12, 13]: no activity
- Comment (response in DMR / internalization assays) ([12]; target GPR37): No response in any assay
- Active in DMR/internalization ([12]; target GPR37, reported ligand tested on receptor-expressing cell line): No

B1: GPR15L (ligand)
peptide: KRRPAKAWSGRRTRLCCHRVPSPNSTNLKGHHVRLCKPCKLEPEPRLWVVPGALPQV
modifications: disulfide (positions not given here)
- fold improved potency at GPR15 against the 11-amino acid peptide 64 (assay not given) [1]: 100 fold
